Counter-ions that a name gives are not always drawn.
These compounds were tested against T1, Sirt6 (Homo sapiens, UniProt Q8N6T7) (assay: Measurement of Sirt6 Activity (CycLex Sirt6 Deacetylase Fluorometric Assay Kit)). Details: compound at 10 μM; fluorescence relative to the group without compound treatment (positive control group).
T1 construct: purchased CycLex CY-1156V2
Assay type: biochemical
Outline: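 Recombinant Sirt6 with fluoro-labelled acetyl-lysine peptide, NAD and lysylendopeptidase developer, compound added from 10× stock in PBS; 1 h at room temperature. Fluorescence read at ex 490/em 530 nm; activation expressed as fluorescence ratio relative to enzyme without compound.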

T1 sequence (Q8N6T7 whole entry): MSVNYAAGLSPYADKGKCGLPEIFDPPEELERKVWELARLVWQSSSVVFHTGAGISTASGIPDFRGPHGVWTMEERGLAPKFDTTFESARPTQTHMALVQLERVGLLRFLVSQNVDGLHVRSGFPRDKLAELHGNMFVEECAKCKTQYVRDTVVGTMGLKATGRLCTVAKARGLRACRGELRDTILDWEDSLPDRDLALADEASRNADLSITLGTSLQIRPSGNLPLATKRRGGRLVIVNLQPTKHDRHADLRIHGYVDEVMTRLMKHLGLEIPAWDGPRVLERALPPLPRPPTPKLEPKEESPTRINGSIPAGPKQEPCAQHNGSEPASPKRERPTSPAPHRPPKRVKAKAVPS

Row | Structure (SMILES) | Sirt6 Activity (% activity, 10 μM) [% activity]
1 | O=C(NOC1CCCCO1)c1cccc(-c2nn(-c3ccc(F)cc3)c(=O)c3ccccc23)c1 (stereo not drawn) [Example 79, 3-(3-(4-Fluorophenyl)-4-oxo-3,4-dihydrophthalazin-1-yl)-N-((tetrahydro-2H-pyran-2-yl)oxy)benzamide] | 167
2 | CN(C)S(=O)(=O)c1cccc(-c2nn(-c3c(F)cccc3F)c(=O)c3ccccc23)c1 [Example 109, 3-(3-(2,6-Difluorophenyl)-4-oxo-3,4-dihydrophthalazin-1-yl)-N,N-dimethylbenzenesulfonamide] | 188
3 | CCS(=O)(=O)c1cccc(-c2nn(-c3ccccc3F)c(=O)c3ccccc23)c1 [Example 98, 4-(3-(Ethylsulfonyl)phenyl)-2-(2-fluorophenyl)phthalazin-1(2H)-one] | 264
4 | CC(C)(CN)c1cccc(-c2nn(-c3ccc(F)cc3F)c(=O)c3ccccc23)c1.Cl [Example 204, 4-(3-(1-Amino-2-methylpropan-2-yl)phenyl)-2-(2,4-difluorophenyl)phthalazin-1(2H)-one-hydro Chloride] | 161.50
5 | O=c1c2ccccc2c(-c2cccc(/C=[N+](\[O-])Cc3ccccc3)c2)nn1-c1ccccc1 [Example 35, (Z)—N-Benzyl-1-(3-(4-oxo-3-phenyl-3,4-dihydrophthalazin-1-yl)phenyl)methanimine Oxide] | 113
6 | CCS(=O)(=O)NC1CCCN(c2nn(-c3ccc(F)cc3)c(=O)c3ccccc23)C1 (stereo not drawn) [Example 135, N-(1-(3-(4-Fluorophenyl)-4-oxo-3,4-dihydrophthalazin-1-yl)piperidin-3-yl)ethanesulfonamide] | 174.93
7 | Cl.NC1CCCCN(c2nn(C3CCCCC3)c(=O)c3ccccc23)C1 (stereo not drawn) [Example 143, 4-(3-Aminoazepan-1-yl)-2-cyclohexyl phthalazin-1(2H)-one-hydrochloride] | 238.3
8 | CC(C)(C)/[N+]([O-])=C/c1cccc(-c2nn(-c3ccc(F)c(Cl)c3)c(=O)c3ccccc23)c1 [Example 34, (Z)—N-tert-Butyl-1-(3-(3-(3-chloro-4-fluorophenyl)-4-oxo-3,4-dihydrophthalazin-1-yl)phenyl) Methanimine Oxide] | 176
9 | O=c1c2ccccc2c(-c2cccc(S(=O)(=O)N3CCCC3)c2)nn1-c1ccc(F)cc1F [Example 214, 2-(2,4-Difluorophenyl)-4-(3-(pyrrolidin-1-ylsulfonyl)phenyl)phthalazin-1(2H)-one] | 233.90
10 | O=c1c2ccccc2c(N2CCCCC(O)C2)nn1-c1ccc(Cl)cc1 (stereo not drawn) [Example 196, 2-(4-Chlorophenyl)-4-(3-hydroxyazepan-1-yl)phthalazin-1(2H)-one] | 135.10
11 | CCS(=O)(=O)Nc1cccc(-c2nn(Cc3ccccc3)c(=O)c3ccccc23)c1 [Example 61, N-(3-(3-Benzyl-4-oxo-3,4-dihydrophthalazin-1-yl)phenyl)ethanesulfonamide] | 104
12 | CS(=O)(=O)c1cccc(-c2nn(-c3ccccc3)c(=O)c3ccc(F)cc23)c1 [Example 110, 6-Fluoro-4-(3-(methylsulfonyl)phenyl)-2-phenylphthalazin-1(2H)-one] | 129
13 | CN[C@@H]1CCCCN(c2nn(-c3ccc(F)cc3F)c(=O)c3ccccc23)C1 [Example 189, (R)-2-(2,4-Difluorophenyl)-4-(3-(methylamino)azepan-1-yl)phthalazin-1(2H)-one-hydrochloride] | 273.70
14 | C/[N+]([O-])=C/c1cccc(-c2nn(-c3ccc(F)cc3F)c(=O)c3ccccc23)c1 [Example 21, (Z)-1-(3-(3-(2,4-Difluorophenyl)-4-oxo-3,4-dihydrophthalazin-1-yl)phenyl)-N-methyl methanimine Oxide] | 167
15 | CCS(=O)(=O)N(C)c1cccc(-c2nn(-c3ccc(F)cc3)c(=O)c3ccccc23)c1 [Example 70, N-(3-(3-(4-Fluorophenyl)-4-oxo-3,4-dihydrophthalazin-1-yl)phenyl)-N-methylethane Sulfonamide] | 135
16 | COC(=O)C1(C2CCCN(c3nn(-c4ccc(F)cc4F)c(=O)c4ccccc34)C2)CC1 (stereo not drawn) [Example 211, Methyl 1-(1-(3-(2,4-difluorophenyl)-4-oxo-3,4-dihydrophthalazin-1-yl)piperidin-3-yl)cyclopropan-1-carboxylate] | 170.00
17 | CN(c1cccc(-c2nn(-c3ccc(F)cc3)c(=O)c3ccccc23)c1)S(C)(=O)=O [Example 69, N-(3-(3-(4-Fluorophenyl)-4-oxo-3,4-dihydrophthalazin-1-yl)phenyl)-N-methylmethane Sulfonamide] | 209
18 | CCNS(=O)(=O)c1cccc(-c2nn(-c3ccccc3F)c(=O)c3ccccc23)c1 [Example 100, N-Ethyl-3-(3-(2-fluorophenyl)-4-oxo-3,4-dihydrophthalazin-1-yl)benzenesulfonamide] | 196
19 | Cl.N[C@@H]1CCCCN(c2nn(-c3ccccc3F)c(=O)c3ccccc23)C1 [Example 175, (R)-4-(3-Aminoazepan-1-yl)-2-(2-fluorophenyl)phthalazin-1(2H)-one-hydrochloride] | 155.3

Same assay, conditions: compound at 10 μM; fluorescence relative to the group without compound treatment (positive control group); 10 µM

Row | Structure (SMILES) | Sirt6 Activity (% activity, 10 μM) [% activity]
20 | CC(C)(C(=O)O)C1CCCN(c2nn(-c3ccc(F)cc3F)c(=O)c3ccccc23)C1 (stereo not drawn) [Example 205, 2-(1-(3-(2,4-Difluorophenyl)-4-oxo-3,4-dihydrophthalazin-1-yl)piperidin-3-yl)-2-methylpropanoic Acid] | 105.70
21 | CC(C)/[N+]([O-])=C/c1cccc(-c2nn(-c3ccc(F)cc3)c(=O)c3ccccc23)c1 [Example 17, (Z)-1-(3-(3-(4-Fluorophenyl)-4-oxo-3,4-dihydrophthalazin-1-yl)phenyl)-N-isopropylmethanimine Oxide] | 207

From US20220235011A1, “PHTHALAZINONE COMPOUNDS AND USE THEREOF” (ST PHARM CO., LTD., priority 2019, published 2022)
